Our source for the normalised response and normalised viability values is the supplement of paper PMC4862054.

Common to all, as to details: incubation time: 72 h
Assay [1] relates to BT-474. The assay is described as follows: normalised response (% of control), CellTiter-Glo; higher = more viable cells (100 = DMSO, 0 = benzethonium chloride kill control). A digest of the protocol: (§1)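 Breast cancer cell lines (20 µl suspension) were seeded into 384-well plates holding compound at 5 concentrations in 10-fold steps over a compound-specific 10,000-fold range, then incubated 72 h. CellTox Green fluorescence (485/520 nm) was read first, then CellTiter-Glo luminescence after 10 min at room temperature. Each plate was normalised to 0.1 % DMSO (100) and a positive kill control (0). Each value is the normalised signal at a single concentration of the series.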
(In general: ATP-based viability assays read luminescence as a measure of living cells.)

For assay [2], the system named is BT-549. The assay is described as above. The method, boiled down: as §1
Assay [3] relates to MDA-MB-231. The assay is described as above. A digest of the protocol:
as §1

Assay [4] concerns MDA-MB-436. The assay is described as above. The method, boiled down: as §1
The test system of assay [5] is SK-BR-3. The assay is described as above. A digest of the protocol: as §1
In assay [6] the test system is BT-474. In words: normalised response (% of control), CellTiter-Glo; higher = more viable cells (100 = DMSO, 0 = benzethonium chloride kill control). As to the method:
(§2)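 DSRT, 72 h incubation, CellTox Green / CellTiter-Glo readout. Signal is normalised to DMSO and benzethonium chloride controls. Value is the normalised response at the highest dose.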
This is another data set of the same source.

The subject of assay [7] is BT-549. The description is as above. As to the method: as §2
This is another data set of the same source.

In assay [8] the test system is CAL-120. The assay is described as above. The method, then: as §2
Assay [9] deals with CAL-51. The description is as above. As to the method: as §2
In assay [10] the test system is CAL-85-1. The description is as above. As to the method:
as §2

For assay [11], the system named is DU-4475. Described as above. As to the method:
as §2

The subject of assay [12] is HCC1143. The assay is described as above. The method, then: as §2
For assay [13], the system named is HCC1599. The assay is described as above. The method, then:
as §2

Assay [14] has as its system HCC1937. The description is as above. The method, then: as §2
Assay [15] relates to HDQ-P1. The description is as above. The method, then: as §2
For assay [16], the system named is Hs578T. Described as above. The method, then:
as §2

The test system of assay [17] is MDA-MB-231. The assay is described as above. The method, then: as §2
The source holds these as a separate data set.

Assay [18] concerns MDA-MB-436. Described as above. The method, then: as §2
This is another data set of the same source.

Assay [19] deals with MDA-MB-453. The assay is described as above. As to the method: as §2
Assay [20] has as its system MFM-223. The description is as above. The method, then:
as §2

Assay [21] relates to CAL-148. In words: normalised viability (% of control), CellTiter-Blue; higher = more viable cells (about 100 = DMSO control). As to the method:
(§3)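 DSRT, CellTiter-Blue viability, 72 h incubation. Signal is normalised to DMSO and benzethonium chloride controls. Value is the normalised response at dose 9.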

Assay [22] relates to CAL-51. The assay is described as above. The method, then:
as §3

The subject of assay [23] is CAL-85-1. The description is as above. As to the method:
as §3

Assay [24] concerns DU-4475. Described as above. The method, then: as §3
The test system of assay [25] is HDQ-P1. Described as above. As to the method:
as §3

Assay [26] deals with MDA-MB-453. The description is as above. The method, then: as §3

Molecules are shown by their SMILES.

On to `O=P1(NCCCl)OCCCN1CCCl` (stereo not drawn) [Ifosfamide] (1000 nM), for which the normalised response in assay [1] was determined as 93.3%; in [2], 96.1%; in assay [3], 88.3%; in [4], 91.3%; in [5], 92%.

Turning to `Cc1ccc(C(=O)Nc2ccc(CN3CCN(C)CC3)c(C(F)(F)F)c2)cc1C#Cc1cnc2cccnn12` [Ponatinib] (100 nM), the normalised response in assay [1] worked out at 93%; in assay [2], 107%; in assay [3] it was 91.4%; in [4], 97%; in [5] it was 107%.

Turning to `N[C@@H](CSC(c1ccccc1)(c1ccccc1)c1ccccc1)C(=O)O` [S-trityl-L-cysteine] (4000 nM), the normalised response is 102% in assay [1]; 98.6% in [2]; 105% in [3]; 100% in assay [4]; 94.3% in assay [5].

Consider `CCC1(c2ccc(N)cc2)CCC(=O)NC1=O` (stereo not drawn) [Aminoglutethimide] (1000 nM), for which the normalised response amounted to 100% in assay [1]; 94.7% in assay [2]; 105% in assay [3]; 102% in assay [4]; 95.6% in assay [5].

On to `Oc1nc(-c2ccc(C(F)(F)F)cc2)nc2c1CSCC2` [XAV-939] (1000 nM), for which the normalised response came out at 79.8% in [1]; 91.8% in assay [2]; 76.8% in [3]; 96.7% in assay [4]; 84.4% in assay [5].

With `Cc1ccc(C(=O)N(CCCN)[C@@H](c2oc3cc(Cl)ccc3c(=O)c2Cc2ccccc2)C(C)C)cc1` (100 nM), the normalised response in assay [6] is 95.6%; in assay [7], 99.6%; in [8], 103%; in assay [9], 72.3%; in assay [10], 97.8%; in [11] it was 92.8%. The normalised response is 96% in [12]; 97.5% in [13]; 95.5% in [14]; 104% in assay [15]; 100% in [16]; 93% in [17]. In addition, the normalised response in assay [18] came out at 88.3%; in assay [19], 91.6%; in assay [20], 97.2%.

As to `COc1cc2nccc(Oc3ccc(NC(=O)C4(C(=O)Nc5ccc(F)cc5)CC4)cc3)c2cc1OC` [Cabozantinib] (100 nM), the normalised response in assay [1] stood at 87.7%; in assay [2] it was 96.5%; in [3], 90.5%; in assay [4], 99.2%; in assay [5] it was 104%.

For `C=C(c1ccc(C(=O)O)cc1)c1cc2c(cc1C)C(C)(C)CCC2(C)C` [Bexarotene] (10000 nM), the normalised viability in assay [21] was determined as 79.8%; in [22], 90.2%; in [23], 95.1%; in assay [24], 116%; in assay [25] it was 103%; in assay [26], 86.7%. Also, the normalised response worked out at 82.1% in [6]; 99.9% in assay [7]; 112% in [8]; 98.3% in assay [9]; 101% in assay [10]; 100% in assay [11]. For the same molecule, the normalised response in assay [12] amounted to 101%; in [13], 59.5%; in assay [14], 96.6%; in assay [15], 106%; in [16] it was 80.8%; in assay [17], 105%. In addition, the normalised response turned out to be 95.9% in assay [18], 110% in assay [19] and 95.1% in [20].

Consider `CCC1=C[C@@H]2CN(C1)Cc1c([nH]c3ccccc13)[C@@](C(=O)OC)(c1cc3c(cc1OC)N(C)[C@H]1[C@@](O)(C(=O)OC)[C@H](OC(C)=O)[C@]4(CC)C=CCN5CC[C@]31[C@@H]54)C2` [Vinorelbine] (1000 nM), for which the normalised response in assay [1] amounted to 55.7%; in [2], 41.8%; in assay [3], 43.5%; in assay [4], 24.7%; in [5], 16.9%.

On to `CCC1(c2ccc(N)cc2)CCC(=O)NC1=O` (stereo not drawn) [Aminoglutethimide] (10000 nM), for which the normalised viability in assay [21] worked out at 112%; in assay [22], 85.2%; in assay [23], 106%; in [24], 97.9%; in assay [25], 120%; in assay [26], 81.6%. Further, the normalised response in assay [6] is 105%; in assay [7], 98.1%; in assay [8], 109%; in assay [9], 145%; in assay [10] it was 106%; in assay [11] it was 101%. The normalised response in assay [12] is 97.4%; in assay [13], 108%; in assay [14], 94.5%; in assay [15] it was 102%; in assay [16], 95.1%; in assay [17] it was 103%. For the same molecule, the normalised response came to 102% in [18], 101% in [19] and 97.8% in assay [20].

Regarding `CNCc1ccc(-c2[nH]c3cc(F)cc4c3c2CCNC4=O)cc1` [Rucaparib] (1000 nM), the normalised response in assay [1] came to 92.3%; in [2] it was 100%; in assay [3], 99%; in assay [4], 88.8%; in assay [5], 86.7%.

Consider `CNCc1ccc(-c2[nH]c3cc(F)cc4c3c2CCNC4=O)cc1` [Rucaparib] (10000 nM), for which the normalised viability in [21] came out at 37.5%; in assay [22], 40.5%; in assay [23], 45.8%; in [24], 46.2%; in assay [25], 106%; in assay [26] it was 32.1%. Moreover, the normalised response in assay [6] came to 80.9%; in [7], 81.8%; in [8], 97.8%; in assay [9] it was 93.3%; in [10], 93.7%; in assay [11], 74%. For the same molecule, the normalised response in assay [12] worked out at 94.5%; in assay [13], 82.2%; in assay [14] it was 79.7%; in [15], 85.3%; in assay [16], 93%; in assay [17] it was 75.7%. For the same molecule, the normalised response in assay [18] came out at 85.7%; in assay [19], 117%; in [20] it was 91%.
